Reference: patent publication US10766888B1, “HMOX1 inducers” (Mitobridge Inc., priority 2019, dated 2020)
pKd: −log10 of the molar value. Entries after “also recorded” stand apart in the source; their conditions may differ.

Legend:
Human BACH1 = target: T1, Human BACH1 (Homo sapiens, UniProt O14867); experiment: Microscale thermophoresis (MST) assay / Bach 1 binding assay; conditions: 10 nM fluorescently labeled BACH1(aa179-736), 25° C.
T1 construct: 10×HIS-GP-BACH1(aa179-736)-Thrombin-FLAG; 10xHis (N); GP linker (Gly-Pro) (N); Thrombin cleavage site (C); FLAG (C); host or cells: Sf9 insect cells
T1 sequence (O14867 179-736): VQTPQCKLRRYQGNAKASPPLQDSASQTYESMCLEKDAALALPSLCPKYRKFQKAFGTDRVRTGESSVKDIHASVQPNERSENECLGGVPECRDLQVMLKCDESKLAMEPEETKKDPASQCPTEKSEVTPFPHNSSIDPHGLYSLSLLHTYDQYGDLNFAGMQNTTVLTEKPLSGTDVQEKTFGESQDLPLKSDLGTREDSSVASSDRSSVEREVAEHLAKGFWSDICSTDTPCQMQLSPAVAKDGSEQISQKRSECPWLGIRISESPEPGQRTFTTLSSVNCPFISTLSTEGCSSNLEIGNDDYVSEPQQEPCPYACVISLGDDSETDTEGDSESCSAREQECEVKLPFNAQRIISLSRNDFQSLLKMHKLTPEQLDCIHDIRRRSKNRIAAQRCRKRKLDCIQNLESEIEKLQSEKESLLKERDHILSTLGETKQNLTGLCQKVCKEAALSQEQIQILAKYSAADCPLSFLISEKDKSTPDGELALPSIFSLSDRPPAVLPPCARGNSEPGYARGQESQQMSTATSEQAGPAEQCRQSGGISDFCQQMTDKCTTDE
Procedure: Example 146. Microscale Thermophoresis (MST) Assay/Bach 1 Binding Assay
Outline of Protein Expression/Production
Human BACH1 (construct-ID: 10×HIS-GP-BACH1(aa179-736)-Thrombin-FLAG) was expressed in Sf9 insect cells. Protein purification was performed using affinity chromatography, followed by size-exclusion chromatography. Quality of resulting protein was judged using SDS-PAGE analysis.
The MST technology is based on measurement of protein movement along a temperature gradient. Thereby, fluorescently labeled protein is loaded into capillaries, where an infrared laser heats a small volume. Before and during heating, fluorescent intensity is measured at the site of irradiation and the loss of fluorescence in the IR laser focus is quantified.
Two major factors contribute to change of fluorescence signal. First of all, the so-called TRIC (Temperature Related Intensity Change) effect is caused by the temperature-dependency of fluorophore's quantum yield. Herein, the extent of the temperature dependence depends on the chemical environment, which may be changed by the binding of a ligand (e.g. compound, peptide) to the target. Moreover, Kd value between ligand and target can depend on temperature. Second, thermophoresis, which is defined as movement of fluorescent molecules along temperature gradient, is a major contributor to change of fluorescence. Hereby, protein movement along the gradient depends on hydrodynamic radius, charge and hydration shell. These properties can change upon association of the labeled protein with another species, e.g. compound. Thereby, MST detects the differences in protein movement with increasing ligand concentration: from this, the fraction of ligand bound protein and a Kd value can be determined.
For Kd determination of compounds binding BACH1, the following protocol was applied: 10×HIS-GP-BACH1(aa179-736)-Thrombin-FLAG (expressed and purified at Proteros) was fluorescently labeled via its lysine-residues (2nd gen NHS-NT.647 dye).
Experiments were performed using the experimental device Monolith NT.115 Pico, NanoTemper Technologies, with MST power set to medium and excitation power set to 2% at a reaction temperature of 25° C.
10 nM fluorescently labeled BACH1 was applied to reaction buffer containing 50 mM HEPES pH 8.0, 100 mM NaCl, 5% glycerol, 0.05% Tween20 and 1 mM DTT in a reaction volume of 8 μL using Monolith NT.115 Premium Capillaries. Compounds were applied at a maximal concentration of 103 μM with 15 subsequent factor 2 dilutions.

HbSS Townes sickle mice = experiment: Heme-induced vaso-occlusion (stasis) in HbSS Townes sickle mice; assay type: in vivo; conditions: 10, 25, 50 mg/kg PO once daily for 8 days, 1 h after heme infusion
Text: Townes-SS mice were gavaged once daily with Vehicle or the compound of Example 17 for 8 days. After the last gavage dorsal skin-fold chambers were implanted on the mice and 20-22 flowing venules were selected and mapped in the subcutaneous skin using intravital microscopy. Mice were then infused via the tail vein with Panhematin (3.2 μmots heme/kg body weight). One hour after infusion each venule was re-examined for microvascular stasis (no flow) and data are expressed as % stasis. Stasis values are means+SD. One-Way ANOVA with Dunnett's Multiple comparison to Vehicle ****P<0.0001
Dosing Scheme of HMOX Inducers to HbSS Townes Sickle Mice
HbSS Townes sickle mice were oral gavaged once daily with Vehicle or the compound of Example 17 listed below for 8 days. To minimize experimental inconsistency, fresh formulation was prepared every day and vortexed prior to drawing test article into syringe for each dosing, and dosing was performed by the same individual throughout the day. The last-day dose was administered by oral gavage 4 hours prior to hemin infusion described below. • 1. […]
Male and female sickle mice, approximately 12 weeks of age, were weighed before surgery. […] All of the selected venules were re-examined at 1 h after hemin infusion, and the number of static (no flow) venules was counted and expressed as percent stasis. […]

| pKd (Human BACH1) | Structure (SMILES) | microvascular stasis compared with Vehicle (in words) (HbSS Townes sickle mice) |
| --- | --- | --- |
| 6.60 | Cn1c(Nc2nc3ccccc3o2)nc2cc(C(=O)NCCOCCO)ccc21 [Example 17, 2-(benzo[d]oxazol-2-ylamino)-N-(2-(2-hydroxyethoxy)ethyl)-1-methyl-1H-benzo[d]imidazole-5-carboxamide] | significantly reduced; also recorded: dose responsively inhibit |
| 6.60 | COCCNC(=O)c1ccc2c(c1)nc(Nc1nc3ccc(OCCOC)cc3o1)n2C [Example 56, 2-((6-(2-methoxyethoxy)benzo[d]oxazol-2-yl)amino)-N-(2-methoxyethyl)-1-methyl-1H-benzo[d]imidazole-5-carboxamide] | – |
